ChEMBL document CHEMBL1857833, “Screening and optimization of specific chemical series against human African Trypanosomiasis (HAT)”
In brackets after ≈: the same amount, converted by molar mass.

Assays:
in vitro [1] = settings: human
Description: DNDI: half life in human liver microsomes at a concentration of 1uM

in vitro [2] = settings: mouse
Description: DNDI: half life in mouse liver microsomes at a concentration of 1uM

Trypanosoma brucei [3] = assay: (§1) DNDI: Mean survival time in days (MSD) of mice after intraperitoneal injection of Human African Trypanosomiasis (HAT), EATRO 110, in vivo at 20 mg/kg/day for 4 days.; type: functional, Mus musculus
Trypanosoma cruzi = assay: DNDI: Inhibition of Chagas Disease parasite Trypanosoma cruzi (Tulahuen LacZ, Clone C4), in vitro.; type: functional, organism-based
[4] = DNDI: Cytotoxicity against L929 mouse fibroblasts, 72 hour.; type: toxicity, cell-based; settings: mouse, L929 mouse fibroblasts
[5] = DNDI: Cytotoxicity against L929 mouse fibroblasts, CYTO-SP, 24 hour; type: toxicity, cell-based; settings: mouse, L929 mouse fibroblasts
[6] = DNDI: Solubility in phosphate buffered saline at pH7.4 measured by nephelometry at room temperature (NEPH-RT); type: physicochemical; settings: pH 7.4
[7] = DNDI: Lipophilicity measured in Chromatographic hydrophobicity index (CHI) assay, pH 7.4; type: physicochemical; settings: buffer
[8] = DNDI: Cytotoxicity against L-6 rat myoblasts from skeletal muscle cells; type: toxicity, cell-based, L6; settings: L-6 rat skeletal muscle myoblasts
[9] = tested on: Trypanosoma brucei rhodesiense; assay: DNDI: Inhibition of Human African Trypanosomiasis (HAT), STIB 900, in vitro; type: functional, organism-based
Plasmodium falciparum = assay: DNDI: Inhibition of the malaria parasite Plasmodium falciparum, in vitro; type: functional, organism-based; settings: K1
Leishmania donovani = assay: DNDI: Inhibition of formation of Leishmania donovani (strain MHOM/ET/67/L82) axenic amastigotes, in vitro.; type: functional, organism-based
in vitro [10] = settings: human; remark: listed apart in the source
Description: DNDI: in vitro intrinsic clearance in human liver microsomes at a concentration of 1uM

Trypanosoma brucei [11] = assay: DNDI: Inhibition of Human African Trypanosomiasis, Cross 22, in vitro; type: functional, organism-based
[12] = mouse, microsomes, 1 µM
Description: DNDI: in vitro intrinsic clearance in mouse liver microsomes at a concentration of 1uM

Trypanosoma brucei [13] = assay: DNDI: Inhibition of Human African Trypanosomiasis, SBRI 427, in vitro; type: functional, organism-based
Trypanosoma brucei [14] = assay: as §1; type: functional, Mus musculus; remark: listed apart in the source
[15] = DNDI: in vitro intrinsic clearance in human liver microsomes at a concentration of 10uM; type: ADME, Microsome
[16] = DNDI: half life in mouse liver microsomes at a concentration of 10uM; type: ADME, Microsome
[17] = DNDI: in vitro intrinsic clearance in mouse liver microsomes at a concentration of 10uM; type: ADME, Microsome; settings: read-out: CLint in vitro
[18] = DNDI: Solubility in phosphate buffered saline at pH7.4 measured by optical density (turbidimetry) at room temperature (OD-RT); type: physicochemical; settings: pH 7.4
[19] = DNDI: half life in human liver microsomes at a concentration of 10uM; type: ADME, Microsome
Trypanosoma brucei [20] = assay: DNDI: Inhibition of Human African Trypanosomiasis, EATRO 110, in vitro; type: functional, organism-based
[21] = DNDI: % of compound remaining in rat S9 microsomes at a concentration of 1uM; type: ADME, subcellular, Liver, S9 fraction
[22] = Trypanosoma brucei, SBRI 427, read-out: IC50

SMILES	MSD (Trypanosoma brucei [3])	IC50 at 72 h [4]	IC50 at 24 h [5]	solubility kinetic [6]	chromatographic logD [7]	half-life at 1 µM (in vitro [2]; liver microsomes, t (1 / 2))	CLint in vitro [12]	IC50 (Trypanosoma brucei [13]; [22])	MSD (Trypanosoma brucei [14])	other results
CCCCc1ccc(-c2nc(CN[C@@H]3C[C@@H]4C[C@H]([C@H]3C)C4(C)C)co2)cc1	3.5 days	0.79 µg/mL (≈ 2.16 µM)	> 50 µg/mL	6 µM (≈ 2.2 µg/mL)	6.6					half-life at 1 µM (in vitro [1]; microsomes, t (1 / 2)): 81 min; half-life at 1 µM (in vitro [2]; microsomes, t (1 / 2)): 13 min; IC50 (Trypanosoma cruzi): 1.4 µg/mL (≈ 3.82 µM); IC50 [8]: 3.21 µg/mL (≈ 8.76 µM); IC50 [9]: 0.357 µg/mL (≈ 0.974 µM); IC50 (Plasmodium falciparum): 0.497 µg/mL (≈ 1.36 µM); IC50 (Leishmania donovani): 4.61 µg/mL (≈ 12.6 µM); microsomal CLint at 1 µM (in vitro [10]; microsomes, CLint in vitro): 10 µL/min/mg; IC50 (Trypanosoma brucei [11]): 0.57 µg/mL (≈ 1.56 µM)
CCCCCOc1ccc(-c2nc(CNC[C@@H]3CC[C@H]4C[C@@H]3C4(C)C)co2)cc1		< 3.13 µg/mL	> 50 µg/mL	< 1 µM	6.45	12 min	74 µL/min/mg	0.08 µg/mL (≈ 0.202 µM)	4 days	
CCc1ccccc1Oc1ncccc1/C(=N\O)NC1CCCCC1			> 50 µg/mL		4.31			0.79 µg/mL (≈ 2.33 µM)		CLint in vitro [15]: 27 µL/min/mg; half-life at 10 µM [16]: 21 min; microsomal CLint at 10 µM [17]: 140 µL/min/mg; solubility kinetic [18]: 6.3 µM (≈ 2.14 µg/mL); half-life at 10 µM [19]: 106 min; IC50 (Trypanosoma brucei [20]): 2.15 µg/mL (≈ 6.33 µM)
O/N=C(/NC1CCCCC1)c1cccc2ccccc12			> 50 µg/mL	50 µM (≈ 13.4 µg/mL)	4.43	5 min	168 µL/min/mg	3.96 µg/mL (≈ 14.8 µM)		half-life at 1 µM (in vitro [1]; liver microsomes, t (1 / 2)): 69 min; microsomal CLint at 1 µM (in vitro [10]; liver microsomes, CLint in vitro): 12 µL/min/mg
O/N=C(\NC1CCCCC1)c1cccnc1			50 µg/mL (≈ 228 µM)	> 200 µM	2.82		12 µL/min/mg	> 5 µg/mL		half-life at 1 µM (in vitro [1]; microsomes): 277 min; half-life at 1 µM (in vitro [2]; microsomes): 70 min; microsomal CLint at 1 µM (in vitro [10]; microsomes): 3 µL/min/mg
COc1cccc(/C(=N/O)NC2CCCCC2)c1	4 days	> 10 µg/mL	> 50 µg/mL		3.84			0.57 µg/mL (≈ 2.3 µM)		IC50 (Trypanosoma cruzi): > 30 µg/mL; CLint in vitro [15]: 13 µL/min/mg; half-life at 10 µM [16]: 7 min; IC50 [8]: 63.3 µg/mL (≈ 255 µM); microsomal CLint at 10 µM [17]: 421 µL/min/mg; IC50 [9]: 14.4 µg/mL (≈ 58 µM); solubility kinetic [18]: 100 µM (≈ 24.8 µg/mL); IC50 (Plasmodium falciparum): 4.4 µg/mL (≈ 17.7 µM); IC50 (Leishmania donovani): 34 µg/mL (≈ 137 µM); half-life at 10 µM [19]: 219 min
CSc1ccccc1Oc1ncccc1/C(=N\O)NC1CCCCC1			> 50 µg/mL					0.62 µg/mL (≈ 1.73 µM)		IC50 (Trypanosoma brucei [20]): 1.34 µg/mL (≈ 3.75 µM)
CCCCc1ccc(-c2nc(CNC3[C@H]4C[C@@H]5C[C@@H](C[C@H]3C5)C4)co2)cc1 (some centres undefined)			> 50 µg/mL						4 days	IC50 (Trypanosoma cruzi): 3.9 µg/mL (≈ 10.7 µM); IC50 (Trypanosoma brucei [13]): 0.77 ug/ml [middle of 4 runs]; IC50 [8]: 8.8 µg/mL (≈ 24.1 µM); IC50 [9]: 0.727 µg/mL (≈ 1.99 µM); IC50 (Plasmodium falciparum): 0.738 µg/mL (≈ 2.02 µM); IC50 (Leishmania donovani): 9.58 µg/mL (≈ 26.3 µM); IC50 (Trypanosoma brucei [11]): 0.44 µg/mL (≈ 1.21 µM)
CC1CC(NCc2coc(-c3ccc(OC(C)C)cc3)n2)CC(C)(C)C1 (centres undefined)	4 days	1.51 µg/mL (≈ 4.24 µM)				33 min	26 µL/min/mg	0.79 µg/mL (≈ 2.22 µM)	3.5 days	
Cc1ccc(Oc2ncccc2/C(=N/O)NC2CCCCC2)cc1		> 10 µg/mL		25 µM (≈ 8.14 µg/mL)	4.32	3.48 min	244.61 µL/min/mg	0.16 µg/mL (≈ 0.492 µM)		remaining at 1 µM [21]: 0%
CCCCCC(C)NCc1coc(-c2ccccc2Oc2ccccc2)n1 (centres undefined)	4 days	6.3 µg/mL (≈ 17.3 µM)				4 min	220 µL/min/mg	2.98 µg/mL (≈ 8.18 µM)	5 days	
O/N=C(\NC1CCCCC1)c1cccnc1Oc1ccccc1Br			> 50 µg/mL					1.13 µg/mL (≈ 2.9 µM)		IC50 (Trypanosoma brucei [20]): 1.56 µg/mL (≈ 4 µM)
CCCCCOc1ccc(-c2nc(CN[C@@H]3C[C@@H]4C[C@H]([C@H]3C)C4(C)C)co2)cc1		< 3.13 µg/mL	38.9 µg/mL (≈ 98.1 µM)	2 µM (≈ 0.793 µg/mL)	6.5	14 min	60 µL/min/mg	0.12 µg/mL (≈ 0.303 µM)	4.5 days	
